Patent publication US20180064153A1, “Methods of Protecting Against Brain Injury” (priority 2016, published 2018)

Test system: rats exposed to a low-pressure blast wave
Details: 30 days supplementation, 33/49

## NCCC(=O)O [BA, beta-alanine]
  prevalence of well-adapted animals: 67%
